Converted amounts (≈) assume the structure as drawn. The source made the active and inactive calls. No cut-off for these calls is given here.

The test system of experiment [1] is P388. Briefly: Cytotoxicity against mouse P388 cells at 100 ug/mL. The experiment is classed as functional, cell-based.
A further experiment concerns KB. Briefly: Cytotoxicity against human KB cells. The experiment is classed as functional, cell-based.
The species entered for experiment [2] is Bos taurus. Nature of the experiment: Inhibition of calf thymus DNA topoisomerase 1 assessed as minimum efficient dose.
The species named for experiment [3] is Bos taurus. Nature of the experiment: Inhibition of calf thymus tubulin assembly.
For experiment [4], the target named is T1, DNA topoisomerase 1 (Homo sapiens) (UniProt P11387).
T1 sequence (whole entry): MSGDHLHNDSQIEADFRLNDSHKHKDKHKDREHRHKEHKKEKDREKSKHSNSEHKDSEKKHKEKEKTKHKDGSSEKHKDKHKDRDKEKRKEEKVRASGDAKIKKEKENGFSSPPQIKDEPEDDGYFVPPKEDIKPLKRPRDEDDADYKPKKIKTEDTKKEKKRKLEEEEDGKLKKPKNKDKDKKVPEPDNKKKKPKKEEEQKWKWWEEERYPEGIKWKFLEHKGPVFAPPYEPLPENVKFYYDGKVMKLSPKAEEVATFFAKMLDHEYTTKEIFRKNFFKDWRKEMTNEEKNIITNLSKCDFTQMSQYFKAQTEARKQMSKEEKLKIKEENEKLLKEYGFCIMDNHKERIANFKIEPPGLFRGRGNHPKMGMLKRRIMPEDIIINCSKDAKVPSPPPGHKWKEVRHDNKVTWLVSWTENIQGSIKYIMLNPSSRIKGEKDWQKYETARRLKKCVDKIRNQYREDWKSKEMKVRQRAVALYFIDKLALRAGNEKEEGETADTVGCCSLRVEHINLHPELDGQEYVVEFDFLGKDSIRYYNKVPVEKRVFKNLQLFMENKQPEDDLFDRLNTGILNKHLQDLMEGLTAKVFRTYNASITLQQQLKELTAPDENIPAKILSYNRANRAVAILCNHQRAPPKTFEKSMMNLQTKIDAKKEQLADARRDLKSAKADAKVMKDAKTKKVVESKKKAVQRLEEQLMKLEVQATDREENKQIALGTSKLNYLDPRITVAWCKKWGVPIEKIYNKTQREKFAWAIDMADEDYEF
Briefly: Inhibition of DNA topoisomerase 1.

Experiment [5] deals with DNA topoisomerase 2-alpha (Homo sapiens) (UniProt P11388). Briefly: Inhibition of DNA topoisomerase 2.
Experiment [6] concerns P388. Nature of the experiment: Cytotoxicity against mouse P388 cells. It counts as functional, cell-based.

Chain of DNA topoisomerase 2-alpha (Homo sapiens) (P11388 whole entry): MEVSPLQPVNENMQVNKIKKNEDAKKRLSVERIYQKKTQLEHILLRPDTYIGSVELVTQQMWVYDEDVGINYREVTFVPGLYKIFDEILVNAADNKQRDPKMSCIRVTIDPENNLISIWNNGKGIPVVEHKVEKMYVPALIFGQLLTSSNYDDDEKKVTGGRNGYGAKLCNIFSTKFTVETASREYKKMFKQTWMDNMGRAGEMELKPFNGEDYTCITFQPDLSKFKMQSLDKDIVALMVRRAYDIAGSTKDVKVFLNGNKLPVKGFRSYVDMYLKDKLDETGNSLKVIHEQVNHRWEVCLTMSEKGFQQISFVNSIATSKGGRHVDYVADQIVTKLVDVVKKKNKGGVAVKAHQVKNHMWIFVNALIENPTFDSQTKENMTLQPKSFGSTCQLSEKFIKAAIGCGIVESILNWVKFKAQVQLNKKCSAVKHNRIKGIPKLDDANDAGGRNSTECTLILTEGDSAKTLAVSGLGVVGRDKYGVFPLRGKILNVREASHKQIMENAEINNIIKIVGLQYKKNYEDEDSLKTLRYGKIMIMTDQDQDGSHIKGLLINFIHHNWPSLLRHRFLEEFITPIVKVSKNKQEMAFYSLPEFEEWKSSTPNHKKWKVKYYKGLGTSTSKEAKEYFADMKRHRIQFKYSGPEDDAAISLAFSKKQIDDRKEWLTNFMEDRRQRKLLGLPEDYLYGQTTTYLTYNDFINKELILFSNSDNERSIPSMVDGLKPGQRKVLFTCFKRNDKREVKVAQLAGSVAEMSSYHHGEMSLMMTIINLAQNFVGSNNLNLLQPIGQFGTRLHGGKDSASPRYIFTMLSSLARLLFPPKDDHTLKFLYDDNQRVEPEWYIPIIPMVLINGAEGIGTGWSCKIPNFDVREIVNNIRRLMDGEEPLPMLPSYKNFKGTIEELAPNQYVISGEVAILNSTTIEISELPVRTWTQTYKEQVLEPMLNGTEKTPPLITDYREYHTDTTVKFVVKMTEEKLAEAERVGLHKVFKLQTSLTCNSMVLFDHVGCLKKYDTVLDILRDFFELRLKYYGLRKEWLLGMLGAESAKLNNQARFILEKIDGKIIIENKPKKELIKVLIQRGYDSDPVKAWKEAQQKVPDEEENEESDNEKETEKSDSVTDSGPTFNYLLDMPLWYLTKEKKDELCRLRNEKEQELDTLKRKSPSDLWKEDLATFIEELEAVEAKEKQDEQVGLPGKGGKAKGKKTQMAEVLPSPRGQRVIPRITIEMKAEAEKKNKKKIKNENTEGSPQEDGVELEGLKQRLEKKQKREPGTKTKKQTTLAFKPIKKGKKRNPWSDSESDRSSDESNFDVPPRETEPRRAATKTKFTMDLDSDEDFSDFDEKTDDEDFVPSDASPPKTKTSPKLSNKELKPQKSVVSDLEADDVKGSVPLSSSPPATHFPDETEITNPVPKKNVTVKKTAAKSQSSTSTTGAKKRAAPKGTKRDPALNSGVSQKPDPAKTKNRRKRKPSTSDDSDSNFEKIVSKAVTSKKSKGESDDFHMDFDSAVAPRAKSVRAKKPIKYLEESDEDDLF

On to `COc1cc(O)c2c(=O)cc(-c3ccc(OC)c(OC)c3)oc2c1`, for which the result in the experiment with P388 [1] was inactive. Half-maximal inhibition with KB (IC50) required 19.4 µg/mL (≈ 59.1 µM).

On to `COc1cc(O)c2c(=O)cc(-c3cc(OC)c(O)c(OC)c3)oc2c1`, for which the outcome with P388 [1] and in the experiment listed under Bos taurus [3] was inactive. The IC50 in the experiment with KB stood at 7.7 µg/mL (≈ 22.4 µM). The MED in the experiment filed under Bos taurus [2] came out at 1 µg/mL.

In the case of `O=c1c(O)c(-c2cc(O)c(O)c(O)c2)oc2cc(O)cc(O)c12`, the result in experiment [4] and in experiment [5] was Active.

`O=c1c(O)c(-c2ccc(O)c(O)c2)oc2cc(O)cc(O)c12`: the result in experiment [4] and in experiment [5] was Active.

Regarding `O=c1c(O)c(-c2ccc(O)c(O)c2)oc2cc(O)ccc12`, the outcome in experiment [4] and in experiment [5] was Active.

The compound `CC[C@@]1(O)C(=O)OCc2c1cc1n(c2=O)Cc2cc3ccccc3nc2-1` [CAMPTOTHECIN] registered an IC50 in the experiment on KB of 0.01 µg/mL (≈ 0.0287 µM). Moreover, the MED in the experiment listed under Bos taurus [2] was 0.03 µg/mL.

Consider `COc1ccc(-c2oc3cc(O)c(OC)c(O)c3c(=O)c2OC)cc1O` [CENTAUREIDIN], for which inhibition in the experiment with KB was half-maximal at 0.04 µg/mL (≈ 0.111 µM) (IC50).

As to `COc1cc(O)c2c(=O)cc(-c3cc(OC)c(OC)c(OC)c3)oc2c1` [CORYMBOSIN], in the experiment on P388 [1], the outcome was inactive. For the same compound, in the experiment on KB, half-maximal inhibition (IC50) required 19.4 µg/mL (≈ 54.1 µM).

On to `COc1cccc2c1C(=O)c1c(O)c3c(c(O)c1C2=O)C[C@@](O)(C(=O)CO)C[C@@H]3O[C@H]1C[C@H](N)[C@H](O)[C@H](C)O1` [DOXORUBICIN], for which the IC50 in the experiment with P388 [6] was 0.005 µg/mL (≈ 0.0092 µM); in the experiment on KB it was 1.5 µg/mL (≈ 2.76 µM).

For the compound `COc1cc(O)c2c(=O)cc(-c3ccc(O)cc3)oc2c1` [GENKWANIN], the concentration for half-maximal inhibition (IC50) with P388 [6] is 10 µg/mL (≈ 35.2 µM); in the experiment on KB, 8.7 µg/mL (≈ 30.6 µM). Further, the MED in the experiment filed under Bos taurus [2] was > 10 µg/mL.

With `COc1cc(O)c2c(=O)cc(-c3cc(O)c(OC)c(OC)c3)oc2c1` [LETHEDOCIN], the result in the experiment on P388 [1] was inactive. In the experiment with KB, the IC50 was 16.4 µg/mL (≈ 47.6 µM).

In the experiment with P388 [6], `COc1cc(O)c2c(=O)cc(-c3ccc(O)c(OC)c3)oc2c1` [VELUTIN] returned an IC50 of 10 µg/mL (≈ 31.8 µM). The MED in the experiment filed under Bos taurus [2] amounted to 0.1 µg/mL. Besides, the outcome in the experiment filed under Bos taurus [3] was inactive.

The term IC50 denotes the concentration that gives 50% inhibition.

The record behind these values is ChEMBL document CHEMBL1158264, “DNA topoisomerase I inhibitors: cytotoxic flavones from Lethedon tannaensis” (J Nat Prod, 1996).
